Experimental data published in US20140011676A1, “1, 8 -DIAZASPIRO [4.5] DECANE- 2, 4 -DIONE DERIVATIVES USEFUL AS PESTICIDES” (SYNGENTA PARTICIPATIONS AG, priority 2010, published 2014).
Where two headings read alike, the source gives them in different places.

How the values were obtained:
[1] = test system: cabbage plants; conditions: in vivo, 6 days, 200 ppm
[2] = test system: Myzus persicae (green peach aphid); conditions: foliar, 144 h, read-out: activity (mortality) against Myzus persicae
[3] = test system: Myzus persicae (green peach aphid); test: Activity against Myzus persicae on cabbage plants, feeding/residual contact activity, spray chamber; type: in vivo; conditions: 144 h, 6 days after treatment
[4] = test system: Thrips tabaci (onion thrips); conditions: foliar, 144 h, read-out: activity (mortality) against Thrips tabaci
[5] = test system: Myzus persicae (green peach aphid); test: Activity against Myzus persicae, mixed population, systemic/feeding activity, curative (pea seedlings); conditions: 144 h, read-out: activity (mortality) against Myzus persicae, systemic
[6] = test system: Tetranychus urticae (two-spotted spider mite); test: whole plant or invertebrate; conditions: foliar, 192 h, read-out: activity (egg, larval and adult mortality) against Tetranychus urticae

Compound | damage to cabbage plants (phytotoxicity) [1] [%] | mortality at 400 ppm [2] [%] | mortality at 200 ppm [3] [%] | mortality at 400 ppm [4] [%] | mortality at 400 ppm [5] [%] | mortality at 400 ppm [6] [%] | melting point [°C]
CON1CCC2(CC1)C(=O)C(Cl)(c1cc(Br)c(C)cc1C)C(=O)N2C (stereo not shown) [Compound P1.2] | ≤ 10 | > 80 | ≥ 80 | > 80 | – | – | –
CON1CCC2(CC1)C(=O)C(Cl)(c1c(C)cccc1C)C(=O)N2C (stereo not shown) [Compound P1.7] | ≤ 10 | – | ≥ 80 | – | > 80 | – | –
CON1CCC2(CC1)C(=O)C(Cl)(c1cc(C)c(C)cc1C)C(=O)N2CC1CC1 (stereo not shown) [Compound P1.6] | ≤ 10 | – | ≥ 80 | – | – | – | –
CON1CCC2(CC1)C(=O)C(Cl)(c1c(C)cc(C)cc1C)C(=O)N2CC1CCCO1 (stereo not shown) [Compound P1.8] | ≤ 10 | – | ≥ 80 | – | – | – | –
CON1CCC2(CC1)C(=O)C(Cl)(c1c(C)cc(Br)cc1C)C(=O)N2C (stereo not shown) [Compound P1.3] | ≤ 10 | > 80 | ≥ 80 | – | > 80 | – | –
CON1CCC2(CC1)C(=O)C(Cl)(c1c(C)ccc(-c3ccc(Cl)cc3)c1C)C(=O)N2C (stereo not shown) [Compound P1.12] | ≤ 10 | > 80 | ≥ 80 | – | – | – | –
COCCN1C(=O)C(Cl)(c2c(C)cc(Cl)cc2C)C(=O)C12CCN(OC)CC2 (stereo not shown) [Compound P1.14] | ≤ 10 | > 80 | ≥ 80 | – | – | – | –
CON1CCC2(CC1)C(=O)C(Cl)(c1cc(C)ccc1C)C(=O)N2C (stereo not shown) [Compound P1.5, 3-Chloro-3-(2,5-dimethyl-phenyl)-8-methoxy-1-methyl-1,8-diaza-spiro[4.5]decane-2,4-dione] | ≤ 10 | – | ≥ 80 | – | – | – | –
CON1CCC2(CC1)C(=O)C(Cl)(c1cc(C)c(C)cc1Cl)C(=O)N2C (stereo not shown) [Compound P1.1, 3-Chloro-3-(2-chloro-4,5-dimethyl-phenyl)-8-methoxy-1-methyl-1,8-diaza-spiro[4.5]decane-2,4-dione] | – | > 80 | – | – | – | > 80 | –
CON1CCC2(CC1)C(=O)C(Cl)(c1c(C)cc(C)cc1C)C(=O)N2C (stereo not shown) [Compound P1.4] | ≤ 10 | > 80 | ≥ 80 | > 80 | > 80 | – | –
COc1cc(Cl)cc(C)c1C1(Cl)C(=O)N(C)C2(CCN(OC)CC2)C1=O (stereo not shown) [Compound P1.10] | – | – | – | – | – | – | 115 to 117
CON1CCC2(CC1)C(=O)C(c1c(C)cc(C)cc1C)([N+](=O)[O-])C(=O)N2C (stereo not shown) [Compound P1.13, 8-Methoxy-1-methyl-3-nitro-3-(2,4,6-trimethyl-phenyl)-1,8-diaza-spiro[4.5]decane-2,4-dione] | ≤ 10 | > 80 | ≥ 80 | – | – | – | –
CCc1cc(Cl)cc(C)c1C1(Cl)C(=O)N(C)C2(CCN(OC)CC2)C1=O (stereo not shown) [Compound P1.11] | ≤ 10 | > 80 | ≥ 80 | – | – | – | –
